What was measured:
[1] = molecular target: T1, β-galactosidase from human lysate (lysed human lymphocytes) (Homo sapiens, UniProt P16278); test: Glycosidase activity assay: β-galactosidase; assay type: biochemical; conditions: inhibitors tested at 100 μM
T1 construct: endogenous in cells; host or cells: normal human lymphocytes (lysate, 62 μg/ml)
T1 sequence (P16278 29-677): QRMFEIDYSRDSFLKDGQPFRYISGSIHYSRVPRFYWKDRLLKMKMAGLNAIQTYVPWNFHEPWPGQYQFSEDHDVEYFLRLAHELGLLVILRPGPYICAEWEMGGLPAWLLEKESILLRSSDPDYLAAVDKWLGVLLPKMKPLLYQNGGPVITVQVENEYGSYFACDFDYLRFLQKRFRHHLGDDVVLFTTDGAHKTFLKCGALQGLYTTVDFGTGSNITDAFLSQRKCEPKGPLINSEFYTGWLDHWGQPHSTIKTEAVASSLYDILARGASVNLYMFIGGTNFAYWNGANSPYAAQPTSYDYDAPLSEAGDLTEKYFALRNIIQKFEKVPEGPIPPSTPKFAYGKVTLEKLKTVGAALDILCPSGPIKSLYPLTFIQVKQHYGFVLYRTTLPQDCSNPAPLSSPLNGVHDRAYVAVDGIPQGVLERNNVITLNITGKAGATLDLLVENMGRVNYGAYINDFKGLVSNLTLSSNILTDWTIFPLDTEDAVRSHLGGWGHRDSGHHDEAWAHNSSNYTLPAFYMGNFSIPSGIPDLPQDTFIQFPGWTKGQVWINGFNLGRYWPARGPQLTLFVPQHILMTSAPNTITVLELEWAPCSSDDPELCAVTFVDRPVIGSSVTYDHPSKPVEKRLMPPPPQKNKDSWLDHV

[2] = molecular target: T2, α-galactosidase from coffee beans (Coffea arabica, UniProt Q42656); test: Glycosidase activity assay: α-galactosidase (coffee beans); assay type: biochemical; conditions: inhibitors tested at 100 μM
T2 construct: purchased

[3] = tested on: Wild-type human lymphocytes (08C0058); test: Cytotoxicity assay using human lymphocytes (alamarBlue); assay type: cell-based; conditions: concentration up to 200 μM; data not shown
Experimental: Wild-type human lymphocytes (08C0058) were seeded in 96-well plates at a number of 50,000 cells/well. […] All compounds were dissolved in DMSO or H2O and control experiments were performed with DMSO. Cells were incubated at 37° C. in 5% CO2 for 48-72 h. Then, 10λ alamarBlue was added to cells suspended in medium, and the mixture was incubated for additional 3-5 hrs at 37° C. in 5% CO2.

[4] = molecular target: T3, rh-α-Gal A (recombinant human α-galactosidase A) (Homo sapiens, UniProt P06280); test: biochemical; conditions: read-out: Inhibition activity (%) rh-α-Gal A
T3 sequence (P06280 32-429): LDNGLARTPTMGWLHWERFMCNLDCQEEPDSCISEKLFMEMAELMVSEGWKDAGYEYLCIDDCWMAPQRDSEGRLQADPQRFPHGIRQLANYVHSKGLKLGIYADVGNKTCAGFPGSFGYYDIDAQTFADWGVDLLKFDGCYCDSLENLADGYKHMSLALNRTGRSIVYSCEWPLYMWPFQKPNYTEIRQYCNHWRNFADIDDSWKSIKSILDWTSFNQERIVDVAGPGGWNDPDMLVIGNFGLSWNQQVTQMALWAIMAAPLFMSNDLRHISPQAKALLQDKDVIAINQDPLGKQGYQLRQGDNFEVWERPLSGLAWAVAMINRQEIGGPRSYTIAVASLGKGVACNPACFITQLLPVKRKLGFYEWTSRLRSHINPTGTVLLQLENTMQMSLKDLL
Experimental: Libraries (20 μL) were diluted to give the final concentration of 20 μM, mixed with substrate 4-methylberiilyl α-D-galactopyranoside (20 μL) and recombinant human alpha-galactosidase (10 μL) in pH 4.6 buffer (50 μL), then assay was carried out at 37° C. for 15 min. […] The control group was a mixture of HBTU, DIEA, acid libraries (in total 20 μL), substrate (20 μL), buffer (50 μL) and enzyme (10 μL) excluded the amide products. Blank was a solution of substrate (20 μL) and enzyme (10 μL) in pH 4.6 buffer (70 μL). Inhibition was performed as relative enzyme activity to control.

[5] = molecular target: T4, α-mannosidase from Jack beans (Canavalia ensiformis, UniProt C0HJB3); test: Glycosidase activity assay: α-mannosidase; assay type: biochemical; conditions: inhibitors tested at 100 μM
T4 construct: purchased
T4 sequence (C0HJB3 1-981): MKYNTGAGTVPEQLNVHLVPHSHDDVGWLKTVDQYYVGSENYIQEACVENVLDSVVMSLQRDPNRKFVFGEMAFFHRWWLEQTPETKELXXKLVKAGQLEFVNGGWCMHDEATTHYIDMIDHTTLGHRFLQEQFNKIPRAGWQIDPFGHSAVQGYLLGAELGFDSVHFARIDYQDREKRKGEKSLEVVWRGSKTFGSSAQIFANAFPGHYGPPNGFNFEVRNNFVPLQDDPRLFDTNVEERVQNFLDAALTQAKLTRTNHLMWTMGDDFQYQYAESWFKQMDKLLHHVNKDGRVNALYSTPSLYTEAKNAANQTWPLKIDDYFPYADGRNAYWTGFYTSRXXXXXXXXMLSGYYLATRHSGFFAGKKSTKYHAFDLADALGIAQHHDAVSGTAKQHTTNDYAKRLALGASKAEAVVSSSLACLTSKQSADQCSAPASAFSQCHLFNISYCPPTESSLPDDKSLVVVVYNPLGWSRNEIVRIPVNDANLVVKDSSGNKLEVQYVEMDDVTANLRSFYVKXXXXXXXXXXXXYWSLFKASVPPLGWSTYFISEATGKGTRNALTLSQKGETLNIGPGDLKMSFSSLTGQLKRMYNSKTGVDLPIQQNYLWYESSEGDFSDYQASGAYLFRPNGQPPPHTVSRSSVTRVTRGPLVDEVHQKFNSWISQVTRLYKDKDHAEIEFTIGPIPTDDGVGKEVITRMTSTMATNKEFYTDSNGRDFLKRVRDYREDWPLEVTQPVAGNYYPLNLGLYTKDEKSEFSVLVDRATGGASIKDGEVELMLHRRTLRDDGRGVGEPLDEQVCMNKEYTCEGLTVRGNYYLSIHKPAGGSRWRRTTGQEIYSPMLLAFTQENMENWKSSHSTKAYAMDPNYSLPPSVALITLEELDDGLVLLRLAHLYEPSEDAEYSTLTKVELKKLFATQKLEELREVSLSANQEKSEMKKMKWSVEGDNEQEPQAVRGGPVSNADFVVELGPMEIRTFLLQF

T2 sequence (Q42656 16-378): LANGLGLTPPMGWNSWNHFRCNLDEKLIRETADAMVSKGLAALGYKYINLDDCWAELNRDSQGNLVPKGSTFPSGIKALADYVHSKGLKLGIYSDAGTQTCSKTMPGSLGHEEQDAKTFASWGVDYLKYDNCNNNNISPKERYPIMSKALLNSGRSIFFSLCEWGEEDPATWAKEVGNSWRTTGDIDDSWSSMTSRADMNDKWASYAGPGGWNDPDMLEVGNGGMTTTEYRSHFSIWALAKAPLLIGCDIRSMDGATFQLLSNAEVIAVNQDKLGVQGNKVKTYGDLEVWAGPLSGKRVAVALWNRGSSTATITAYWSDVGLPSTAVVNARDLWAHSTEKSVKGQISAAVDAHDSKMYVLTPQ

In the case of `O=C(CCCCC1CCCCC1)NC[C@H]1N[C@H](CO)[C@H](O)[C@@H]1O` [Compound 33], the “Inhibition activity (%) β-galactosidase” value [1] was “No inhibition”, the inhibition at 100 µM [2] was 94% and the “toxic effect in cell culture” value [3] was “no toxic effect”. For the same compound, the inhibition at 100 µM [4] was 97% and the inhibition at 100 µM [5] was 36%.

Reference: patent US10995067B2, “Treatment of Fabry disease” (Academia Sinica, priority 2016, dated 2021)
